Laboratory results: US20080159958A1, “DETERMINATION OF HISTAMINE-3 BIOACTIVITY” (Abbott Laboratories, priority 2006, published 2008)
Read-outs that look alike come from different tables or passages of the source.

How the values were obtained:
[1] = target: rat histamine H3 receptor (Rattus norvegicus, UniProt Q9QYN8); test: Competition binding assay with [3H]-N-α-methylhistamine, rat H3 receptor
Experimental: The rat and human H3 receptor was cloned and expressed in cells, and competition binding assays carried out, according to methods previously described (see Esbenshade, et al. Journal of Pharmacology and Experimental Therapeutics, vol. 313:165-175, 2005; Esbenshade et al., Biochemical Pharmacology 68 (2004) 933-945; Krueger, et al. Journal of Pharmacology and Experimental Therapeutics, vol. 314:271-281, 2005. Membranes were prepared from C6 or HEK293 cells, expressing the rat histamine H3 receptor, by homogenization on ice in TE buffer (50 mM Tris-HCl buffer, pH 7.4, containing 5 mM EDTA), 1 mM benzamidine, 2 μg/ml aprotinin, 1 μg/ml leupeptin, and 1 μg/ml pepstatin. The homogenate was centrifuged at 40,000 g for 20 minutes at 4° C. This step was repeated, and the resulting pellet was resuspended in TE buffer. Aliquots were frozen at −70° C. until needed. On the day of assay, membranes were thawed and diluted with TE buffer.
Membrane preparations were incubated with [^3H]-N-α-methylhistamine (0.5-1.0 nM) in the presence or absence of increasing concentrations of ligands for H3 receptor competition binding. […] Bound radiolabel was determined by liquid scintillation counting. For all of the radioligand competition binding assays, IC50 values and Hill slopes were determined by Hill transformation of the data and pKi values were determined by the Cheng-Prusoff equation.

rat 1-4 Hz EEG amplitude = test: Rat cortical EEG, H1R or H3R antagonist given alone (1-4 Hz amplitude); type: in vivo; conditions: rats, vs. vehicle control
Experimental: (§1) All experiments have been approved by the Institutional Animal Care and Use Committee (IACUC) at Abbott Laboratories and are in strict accordance with the ethical guidelines for use of laboratory animals. All experiments were conducted with male adult CD-1 rats of the Sprague-Dawley strain (Charles River Laboratories, Portage, Mich.) with body weights in the range of 400-600 g. When the rats were not in the laboratory being tested, they were housed 1 per cage in a climate controlled room with 12 hour lights on, 12 hour lights off cycle and food provided ad-lib.
(§2) For anesthesia during surgical implantation of EEG recording electrodes, rats are administered Nembutal (Abbott Laboratories) […] ip. After achieving a deep, stable plane of anesthesia, scalp hair is removed using electric clippers and the rat is placed into the ear and incisor bars of a stereotaxic instrument to immobilize the head. The scalp is disinfected with povidone iodine, and an incision is placed longitudinally along the midline of the scalp and the tissue retracted from the skull with a blunt probe. EEG recording electrodes are bilaterally implanted over the parietal (−2.0 mm anterior-posterior, 4.0 mm lateral from bregma) and frontal (+2.0 mm anterior-posterior, 3.0 mm lateral from bregma) cortices. A reference electrode was placed 11.0 mm posterior to bregma along the centerline (0.0 mm lateral). Cortical surface electrodes consist of stainless steel screws (size #90-00) soldered to a fine wire and a miniature electrical socket. To implant the electrodes, small holes are drilled (#60 bit) into the skull, taking care not to damage the dura with the drill bit. […] Once in place, the electrodes along with the miniature connector are permanently affixed to the skull with acrylic dental cement. The rats are given a 10-14 day recovery period from the surgery before experiments are conducted.
The EEG was recorded from rats inside sound-attenuating chambers (Med Associates Inc, St. Albans, Vt.). Before any pharmacological experiments began, implanted rats were habituated to the EEG recording chambers for 2-5 hours on 5 consecutive days. When placed into the recording chambers, a flexible cable is attached to the miniature connector implanted on the rats. This cable allows the rat unrestricted movement within the chambers during the recording session. EEG amplifiers (AM Systems, Inc., Carlsborg, Wash.) and a computer-based data acquisition system (Datawave Inc., Berthoud, Colo.) were used to acquire (256 Hz sampling rate) and analyze data. All experiments and habituation sessions were conducted during the light phase of the circadian cycle.
Dose response effects on EEG were determined for the H3R antagonist Compound 1 (0.01-1.0 mg/kg), ABT-239 (0.1-3.0 mg/kg), and thioperamide (3.0-30.0 mg/kg). […] Dose response effects on EEG were also determined for the H1 antagonist diphenhydramine (1.0-10.0 mg/kg). […] Each rat received a vehicle control treatment (placebo), and all doses of the test compounds. All treatments were administered by the intraperitoneal (i.p.) route of administration. The treatments were administered in a random order on different days with one treatment per day, and at least 2 days between treatments. This within subjects design allowed each rat to serve as its own control. EEG recordings were begun within 10 minutes after injection and recording sessions lasted for 120 minutes. The time of day for injections and subsequent recordings were between 10:00 AM and 2:00 PM.
(§3) Assessment of cortical low frequency EEG amplitude in the 1-4 Hz band (delta) was used as an electrophysiological measure of H1R and H3R antagonist activity in rats. The average 1-4 Hz EEG amplitude in microvolts (μV) was determined for 10 second epochs using Fast Fourier Transform (FFT) analysis. To determine the average 1-4 Hz EEG amplitude for the first 60 minutes of the recording, 360-10 sec FFT analyzed epochs were averaged together. […]

[2] = tested on: diphenhydramine-induced increase of rat 1-4 Hz EEG amplitude; test: Rat cortical EEG, H3R antagonist co-administered with diphenhydramine (1-4 Hz amplitude); type: in vivo; conditions: rats
Experimental: as §1, §2
The EEG was recorded from rats inside sound-attenuating chambers (Med Associates Inc, St. Albans, Vt.). Before any pharmacological experiments began, implanted rats were habituated to the EEG recording chambers for 2-5 hours on 5 consecutive days. When placed into the recording chambers, a flexible cable is attached to the miniature connector implanted on the rats. This cable allows the rat unrestricted movement within the chambers during the recording session. […]
as §3

human H3 receptor = target: T1, human H3 receptor (Homo sapiens, UniProt Q9Y5N1); test: Competition binding assay with [3H]-N-α-methylhistamine, human H3 receptor; conditions: cloned human H3 receptor, cell membranes
T1 construct: expressed in transfected cells
T1 sequence (Q9Y5N1 whole entry): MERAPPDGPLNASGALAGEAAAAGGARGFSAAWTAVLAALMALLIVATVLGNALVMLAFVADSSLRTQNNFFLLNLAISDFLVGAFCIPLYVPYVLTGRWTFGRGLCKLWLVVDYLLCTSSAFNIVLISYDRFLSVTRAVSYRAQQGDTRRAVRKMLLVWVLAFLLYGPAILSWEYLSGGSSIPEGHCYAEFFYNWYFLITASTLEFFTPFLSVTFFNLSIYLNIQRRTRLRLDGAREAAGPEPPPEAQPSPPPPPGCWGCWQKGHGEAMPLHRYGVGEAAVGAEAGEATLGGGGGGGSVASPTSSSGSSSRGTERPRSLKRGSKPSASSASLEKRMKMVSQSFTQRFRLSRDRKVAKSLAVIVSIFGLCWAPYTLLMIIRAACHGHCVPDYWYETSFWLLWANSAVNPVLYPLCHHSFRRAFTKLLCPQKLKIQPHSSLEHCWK
Experimental: Membrane preparations were incubated with [^3H]-N-α-methylhistamine (0.5-1.0 nM) in the presence or absence of increasing concentrations of ligands for H3 receptor competition binding.

rat histamine H3 receptor, sequence (Q9QYN8 whole entry): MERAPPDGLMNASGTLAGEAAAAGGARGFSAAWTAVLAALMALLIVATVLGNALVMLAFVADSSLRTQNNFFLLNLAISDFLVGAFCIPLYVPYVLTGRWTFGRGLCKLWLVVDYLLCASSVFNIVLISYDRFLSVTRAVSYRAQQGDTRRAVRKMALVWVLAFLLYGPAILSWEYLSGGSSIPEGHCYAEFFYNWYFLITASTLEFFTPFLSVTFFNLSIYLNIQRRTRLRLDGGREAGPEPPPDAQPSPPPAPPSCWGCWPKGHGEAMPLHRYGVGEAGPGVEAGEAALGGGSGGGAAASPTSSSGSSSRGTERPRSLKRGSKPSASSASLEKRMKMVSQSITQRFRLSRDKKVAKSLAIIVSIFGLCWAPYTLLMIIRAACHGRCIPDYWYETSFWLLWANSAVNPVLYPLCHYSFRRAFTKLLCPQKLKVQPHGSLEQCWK

CN1C[C@H]2CCN(c3ccc(-c4ccc(-n5ncccc5=O)cc4)cc3)[C@H]2C1 [Compound 1, (3aR, 6aR)-2-[4′-(5-methyl-hexahydro-pyrrolo[3,4-b]pyrrol-1-yl)-biphenyl-4-yl]-2H-pyridazin-3-one]
Ki [1]: 8.1 nM | effect on average amplitude of 1-4 Hz EEG, given alone (rat 1-4 Hz EEG amplitude; 1.0 mg/kg i.p., first hour after injection): lower the average amplitude of 1-4 Hz EEG | effect on average amplitude of 1-4 Hz EEG, given alone (rat 1-4 Hz EEG amplitude; 0.01-0.1 mg/kg i.p., first hour): did not produce significant lowering | effect on diphenhydramine-induced increase of average 1-4 Hz EEG amplitude ([2]; 0.01 mg/kg i.p. given 15 minutes before diphenhydramine 10.0 mg/kg i.p.): did not achieve statistical significance | effect on diphenhydramine-induced increase of average 1-4 Hz EEG amplitude ([2]; 0.03 mg/kg and 0.1 mg/kg i.p. given 15 minutes before diphenhydramine 10.0 mg/kg i.p.): significantly reduces | Ki (human H3 receptor): 1.9 nM

C[C@@H]1CCCN1CCc1cc2cc(-c3ccc(C#N)cc3)ccc2o1 [Compound 2, 4-(2-[2-((R)-2-methyl-pyrrolidin-1-yl)-ethyl]-benzofuran-5-yl}-benzonitrile]
effect on average amplitude of 1-4 Hz EEG, given alone (rat 1-4 Hz EEG amplitude; 3.0 mg/kg i.p., first hour): trend toward a decrease | effect on average amplitude of 1-4 Hz EEG, given alone (rat 1-4 Hz EEG amplitude; 0.1-3.0 mg/kg i.p., first hour): did not produce statistically significant lowering | effect on diphenhydramine-induced increase of average 1-4 Hz EEG amplitude ([2]; 0.3 mg/kg i.p. given 15 minutes before diphenhydramine 10.0 mg/kg i.p.): significantly reduces

S=C(NC1CCCCC1)N1CCC(c2c[nH]cn2)CC1 [Compound 3, N-cyclohexyl-4-(1H-imidazol-4-yl)piperidine-1-carbothioamide]
Ki ([1]; read-out: rat H3 Ki, cloned rat H3 receptor, C6 or HEK293 cell membranes): 3.6 nM | effect on average amplitude of 1-4 Hz EEG, given alone (rat 1-4 Hz EEG amplitude; 30.0 mg/kg i.p., first hour after injection): lower the average amplitude of 1-4 Hz EEG | effect on average amplitude of 1-4 Hz EEG, given alone (rat 1-4 Hz EEG amplitude; 3.0-10. mg/kg i.p., first hour): did not produce significant lowering | effect on diphenhydramine-induced increase of average 1-4 Hz EEG amplitude ([2]; 3.0 mg/kg i.p. given 15 minutes before diphenhydramine 10.0 mg/kg i.p.): significantly reduces

CN(C)CCOC(c1ccccc1)c1ccccc1 [diphenhydramine]
effect on average amplitude of 1-4 Hz EEG, given alone (rat 1-4 Hz EEG amplitude; 10.0 mg/kg i.p., first hour): significantly increased | effect on average amplitude of 1-4 Hz EEG, given alone (rat 1-4 Hz EEG amplitude; 1.0-3.0 mg/kg i.p., first hour): not significantly different from vehicle control
